In ChEMBL document CHEMBL1201862, “PubChem BioAssay data set” (2004):
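How tested: cells in 96-well plates exposed to compound for 48 hours at five concentrations. Abbreviation: GI50, concentration required for 50% inhibition of growth.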 Active and inactive are the calls of the source. Rule as the data show it: active = GI50 up to about 1.1 µM and inactive = higher.

Experiments:
Assay in all cases: NCI-60 cell line screen, 48 h
KM-20L2 = test system: KM-20L2
RXF 631 = test system: RXF 631
XF498 = test system: XF498
HOP-18 = test system: HOP-18
M19-MEL = test system: M19-MEL
SNB-78 = test system: SNB-78
DMS-273 = test system: DMS-273
DMS-114 = test system: DMS-114
BT-549 = test system: BT-549

SMILES | GI50 (KM-20L2) | GI50 (RXF 631) | GI50 (XF498) | GI50 (HOP-18) | GI50 (M19-MEL) | GI50 (SNB-78) | GI50 (DMS-273) | GI50 (DMS-114) | GI50 (BT-549)
Cc1ccc(S(=O)(=O)NC2(C=O)CCC(C(C)(C)C)CC2)cc1 (stereo not drawn) | 28.8 µM (inactive) | 31.8 µM (inactive) | 43.8 µM (inactive) | 29.2 µM (inactive) | 24.7 µM (inactive) | > 100 µM (inactive) | 27.7 µM (inactive) | 20.4 µM (inactive) | 
C[C@]12CCNC(=O)C=C1CC[C@@H]1C2CC[C@@]2(C)C1CC[C@@H]2OC(=O)COc1ccc(N(CCCl)CCCl)cc1 (stereo partly drawn) | 14.4 µM (inactive) | 4.71 µM (inactive) | 1.35 µM (inactive) | 18.8 µM (inactive) | 4.91 µM (inactive) | 28.6 µM (inactive) | 0.638 µM (active) |  | 17.5 µM (inactive)
O=[N+]([O-])c1ccc(C2CC(c3ccccc3Cl)=Nc3ccccc3[S+]2[O-])cc1 (stereo not drawn) | 2.59 µM (inactive) | 5.27 µM (inactive) | 5.89 µM (inactive) | 14.1 µM (inactive) | 2.77 µM (inactive) | 13.1 µM (inactive) | 2.95 µM (inactive) | 2.05 µM (inactive) | 13.7 µM (inactive)
COC(=O)CCC(=O)CC(=O)C(=O)Nc1c(Cl)cc([N+](=O)[O-])cc1Cl | > 100 µM (inactive) | > 100 µM (inactive) | > 100 µM (inactive) | > 100 µM (inactive) | > 100 µM (inactive) | > 100 µM (inactive) | > 100 µM (inactive) | 23.5 µM (inactive) | 
